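Following 48 hours of exposure in 96-well plates, responses at five concentrations were used to interpolate endpoints linearly. The concentration for 50% growth inhibition is given as GI50. TGI is the concentration that stops growth completely.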
Experiments:
Assay in all cases: growth of human tumour cells (NCI), 48 h
[1] = test system: HOP-62 NSCLC
[2] = test system: KM12 colon
[3] = test system: NCI-H460 lung
[4] = test system: RPMI-8226 leukemia
[5] = test system: HS 578T breast
[6] = test system: UO-31 renal
[7] = test system: MDA-MB-435
[8] = test system: T-47D breast
[9] = test system: SF-268 CNS
[10] = test system: NCI/ADR-RES ovarian
[11] = test system: SF-295 CNS
[12] = test system: EKVX NSCLC
[13] = test system: SR leukemia
[14] = test system: MOLT-4 leukemia
[15] = test system: 786-0 renal
[16] = test system: MDA-MB-231 breast
[17] = test system: HL-60(TB) leukemia
[18] = test system: OVCAR-4 ovarian
[19] = test system: SNB-19 CNS
[20] = test system: SK-MEL-28 melanoma
[21] = test system: SF-539 CNS
[22] = test system: OVCAR-5 ovarian
[23] = test system: PC-3 prostate
[24] = test system: LOX IMVI melanoma
[25] = test system: CCRF-CEM leukemia
[26] = test system: SN12C renal
[27] = test system: NCI-H226 lung
[28] = test system: DU-145 prostate
[29] = test system: HCC-2998 colon
[30] = test system: BT-549 breast
[31] = test system: MALME-3M melanoma
[32] = test system: HOP-92 NSCLC
[33] = test system: U251 CNS
[34] = test system: NCI-H522 lung
[35] = test system: UACC-62 melanoma
[36] = test system: SK-OV-3 ovarian
[37] = test system: TK-10 renal
[38] = test system: SNB-75 CNS
[39] = test system: OVCAR-3 ovarian
[40] = test system: A498 renal
[41] = test system: SK-MEL-5 melanoma
[42] = test system: MCF7 breast
[43] = test system: NCI-H23 lung
[44] = test system: HT29 colon
[45] = test system: COLO 205 colon
[46] = test system: OVCAR-8 ovarian
[47] = test system: HCT-15 colon
[48] = test system: A549 NSCLC
[49] = test system: UACC-257 melanoma
[50] = test system: SW-620 colon
[51] = test system: SK-MEL-2 melanoma
[52] = test system: IGROV1 ovarian
[53] = test system: ACHN renal
[54] = test system: CAKI-1 renal
[55] = test system: M14 melanoma
[56] = test system: K-562 leukemia
[57] = test system: HCT-116 colon
[58] = test system: RXF 393 renal

Structure (SMILES): CN1CCN(c2ccc(Nc3nc(NCCCNS(=O)(=O)c4cccc(F)c4)c4sccc4n3)cc2)CC1
- GI50 [1]: 14.8 µM
- TGI [1]: 29 µM
- GI50 [2]: 10.8 µM
- TGI [2]: 40.5 µM
- GI50 [3]: 3810 nM
- TGI [3]: 14.6 µM
- GI50 [4]: 2850 nM
- TGI [4]: 13.9 µM
- GI50 [5]: 3720 nM
- TGI [5]: 34.4 µM
- GI50 [6]: 10.1 µM
- TGI [6]: 21.7 µM
- GI50 [7]: 3010 nM
- TGI [7]: 11.3 µM
- GI50 [8]: 10.9 µM
- TGI [8]: 31.1 µM
- GI50 [9]: 6.41 µM
- TGI [9]: 24.9 µM
- GI50 [10]: 13.9 µM
- TGI [10]: 38.5 µM
- GI50 [11]: 3740 nM
- TGI [11]: 13.8 µM
- GI50 [12]: 9.48 µM
- TGI [12]: 21.3 µM
- GI50 [13]: 1790 nM
- TGI [13]: 5.5 µM
- GI50 [14]: 1340 nM
- TGI [14]: 12.8 µM
- GI50 [15]: 2470 nM
- TGI [15]: 6.25 µM
- GI50 [16]: 3.54 µM
- TGI [16]: 12.7 µM
- GI50 [17]: 1780 nM
- TGI [17]: 3.74 µM
- GI50 [18]: 3.45 µM
- TGI [18]: 14.7 µM
- GI50 [19]: 7.7 µM
- TGI [19]: 20.2 µM
- GI50 [20]: 1.61 µM
- TGI [20]: 3.08 µM
- GI50 [21]: 1670 nM
- TGI [21]: 3.18 µM
- GI50 [22]: 10.2 µM
- TGI [22]: 22.3 µM
- GI50 [23]: 6.87 µM
- TGI [23]: 25.1 µM
- GI50 [24]: 1740 nM
- TGI [24]: 3.58 µM
- GI50 [25]: 3990 nM
- TGI [25]: > 100 µM
- GI50 [26]: 11.5 µM
- TGI [26]: 23.8 µM
- GI50 [27]: 6.63 µM
- TGI [27]: 20.1 µM
- GI50 [28]: 10.5 µM
- TGI [28]: 23 µM
- GI50 [29]: 4.35 µM
- TGI [29]: 15.5 µM
- GI50 [30]: 8.19 µM
- TGI [30]: 23.9 µM
- GI50 [31]: 1800 nM
- TGI [31]: 3.25 µM
- GI50 [32]: 3.37 µM
- TGI [32]: 17.1 µM
- GI50 [33]: 3310 nM
- TGI [33]: 13.5 µM
- GI50 [34]: 3200 nM
- TGI [34]: 14.1 µM
- GI50 [35]: 2460 nM
- TGI [35]: 7.07 µM
- GI50 [36]: 17.3 µM
- TGI [36]: 32.3 µM
- GI50 [37]: 14.5 µM
- TGI [37]: 28.2 µM
- GI50 [38]: 11.5 µM
- TGI [38]: 23.9 µM
- GI50 [39]: 3590 nM
- TGI [39]: 15.3 µM
- GI50 [40]: 10.9 µM
- TGI [40]: 23 µM
- GI50 [41]: 3490 nM
- TGI [41]: 12 µM
- GI50 [42]: 3520 nM
- TGI [42]: 14.3 µM
- GI50 [43]: 11.7 µM
- TGI [43]: 25.7 µM
- GI50 [44]: 2180 nM
- TGI [44]: 5.14 µM
- GI50 [45]: 3610 nM
- TGI [45]: 16.1 µM
- GI50 [46]: 5.67 µM
- TGI [46]: 23.2 µM
- GI50 [47]: 2180 nM
- TGI [47]: 6.88 µM
- GI50 [48]: 10 µM
- TGI [48]: 23.7 µM
- GI50 [49]: 1860 nM
- TGI [49]: 3.81 µM
- GI50 [50]: 4120 nM
- TGI [50]: 17.2 µM
- GI50 [51]: 12.8 µM
- TGI [51]: 25.9 µM
- GI50 [52]: 7.33 µM
- TGI [52]: 20.9 µM
- GI50 [53]: 4490 nM
- TGI [53]: 16.2 µM
- GI50 [54]: 10.8 µM
- TGI [54]: 22.6 µM
- GI50 [55]: 1780 nM
- TGI [55]: 3.69 µM
- GI50 [56]: 1430 nM
- TGI [56]: 9.8 µM
- GI50 [57]: 3730 nM
- TGI [57]: 16.4 µM

Structure (SMILES): N#Cc1cccc(/C(N)=N/C(N)=N/c2nc3ccccc3s2)c1
- GI50 [1]: 0.609 µM
- TGI [1]: 18.2 µM
- GI50 [2]: 0.511 µM
- TGI [2]: > 100 µM
- GI50 [3]: 479 nM
- TGI [3]: > 100 µM
- GI50 [4]: 686 nM
- TGI [4]: > 100 µM
- GI50 [5]: 531 nM
- TGI [5]: > 43.3 µM
- GI50 [6]: 1.81 µM
- TGI [6]: > 100 µM
- GI50 [7]: 211 nM
- TGI [7]: 0.776 µM
- GI50 [8]: 0.659 µM
- TGI [8]: > 100 µM
- GI50 [9]: 1.7 µM
- TGI [9]: > 71.7 µM
- GI50 [10]: 0.437 µM
- TGI [10]: > 100 µM
- GI50 [11]: 504 nM
- TGI [11]: > 41 µM
- GI50 [12]: 2.41 µM
- TGI [12]: > 100 µM
- GI50 [13]: 437 nM
- TGI [13]: > 100 µM
- GI50 [14]: 657 nM
- TGI [14]: > 25.6 µM
- GI50 [15]: 733 nM
- TGI [15]: > 77.7 µM
- GI50 [16]: 2.64 µM
- TGI [16]: > 100 µM
- GI50 [17]: 311 nM
- GI50 [18]: 2.74 µM
- TGI [18]: > 100 µM
- GI50 [19]: 0.614 µM
- TGI [19]: > 72.6 µM
- GI50 [20]: 5.33 µM
- TGI [20]: > 100 µM
- GI50 [21]: 457 nM
- TGI [21]: 4.05 µM
- GI50 [22]: 3.65 µM
- TGI [22]: > 100 µM
- GI50 [23]: 0.84 µM
- TGI [23]: > 100 µM
- GI50 [24]: 614 nM
- TGI [24]: > 100 µM
- GI50 [25]: 551 nM
- TGI [25]: > 100 µM
- GI50 [26]: 1.13 µM
- TGI [26]: > 100 µM
- GI50 [27]: 1.22 µM
- TGI [27]: 73.8 µM
- GI50 [28]: 1.56 µM
- TGI [28]: > 100 µM
- GI50 [29]: 2.85 µM
- TGI [29]: > 100 µM
- GI50 [30]: 1.03 µM
- TGI [30]: > 59.3 µM
- GI50 [31]: 1570 nM
- TGI [31]: > 66.7 µM
- GI50 [32]: 2.75 µM
- TGI [32]: > 60.6 µM
- GI50 [33]: 591 nM
- TGI [33]: > 54.4 µM
- GI50 [34]: 481 nM
- TGI [34]: > 100 µM
- GI50 [35]: 418 nM
- TGI [35]: > 71.5 µM
- GI50 [36]: 1.79 µM
- TGI [36]: 40.7 µM
- GI50 [37]: 9.17 µM
- TGI [37]: > 92.4 µM
- GI50 [38]: 0.213 µM
- TGI [38]: 9.33 µM
- GI50 [39]: 508 nM
- TGI [39]: > 23.2 µM
- GI50 [40]: 1.13 µM
- TGI [40]: 11.6 µM
- GI50 [41]: 699 nM
- TGI [41]: > 28.2 µM
- GI50 [42]: 427 nM
- TGI [42]: > 100 µM
- GI50 [43]: 1.79 µM
- TGI [43]: > 100 µM
- GI50 [44]: 450 nM
- TGI [44]: > 100 µM
- GI50 [45]: 1020 nM
- TGI [45]: > 100 µM
- GI50 [46]: 1.59 µM
- TGI [46]: > 100 µM
- GI50 [47]: 443 nM
- TGI [47]: > 100 µM
- GI50 [48]: 3.48 µM
- TGI [48]: > 100 µM
- GI50 [49]: > 100000 nM
- TGI [49]: > 100 µM
- GI50 [50]: 485 nM
- TGI [50]: > 100 µM
- GI50 [51]: 1.33 µM
- TGI [51]: > 60.7 µM
- GI50 [52]: 0.826 µM
- TGI [52]: > 100 µM
- GI50 [53]: 855 nM
- TGI [53]: > 100 µM
- GI50 [54]: 0.538 µM
- TGI [54]: > 34.3 µM
- GI50 [58]: 388 nM
- TGI [58]: 2420 nM
- GI50 [55]: 513 nM
- TGI [55]: > 100 µM
- GI50 [56]: 316 nM
- TGI [56]: > 100 µM
- GI50 [57]: 487 nM
- TGI [57]: > 100 µM

From PubChem BioAssay (NCI)
